Reference: US20260055120A1, “Bicyclic pyrimidinones as inhibitors of NOX4” (Boehringer Ingelheim International GmbH, priority 2024, published 2026)

How the values were obtained:
[1] = target: human NOX4 (hNOX4) (Homo sapiens (Human), UniProt Q9NPH5); assay: NOX4 inhibition assay (HyPerBlu); format: cell-based; details: HEK293 cells overexpressing hNOX4, HyPerBlu
Experimental: NOX4 inhibition is assessed utilizing HEK293 cells stably overexpressing human NOX4 (hNOX4), generating constitutively high levels of hydrogen peroxide (H2O2). Cells are cultured in the Dulbecco's Modified Eagle Medium (DMEM) media containing 4.5 g/L glucose supplemented with 10% fetal calf serum and 250 μg/ml Zeocin in an incubator at 37° C. with 5% CO2. For the assay, cells are seeded in 384 well plates. […] After incubation Lumigen HyPerBlu™ is added and cells are incubated for additional 30 min at 24° C. in a humidified incubator. Next, luminescence is measured using an Envision Multimode Plate reader to determine levels of produced H2O2 in the wells.

[2] = target: NOX4 (Homo sapiens (Human), UniProt Q9NPH5); details: modified human embryonic kidney (HEK) cells, Amplex Red as detecting reagent; read-out: NOX4 IC50 as disclosed in WO2016207785; cited from earlier work
NOX4, sequence (Q9NPH5 whole entry, species assumed): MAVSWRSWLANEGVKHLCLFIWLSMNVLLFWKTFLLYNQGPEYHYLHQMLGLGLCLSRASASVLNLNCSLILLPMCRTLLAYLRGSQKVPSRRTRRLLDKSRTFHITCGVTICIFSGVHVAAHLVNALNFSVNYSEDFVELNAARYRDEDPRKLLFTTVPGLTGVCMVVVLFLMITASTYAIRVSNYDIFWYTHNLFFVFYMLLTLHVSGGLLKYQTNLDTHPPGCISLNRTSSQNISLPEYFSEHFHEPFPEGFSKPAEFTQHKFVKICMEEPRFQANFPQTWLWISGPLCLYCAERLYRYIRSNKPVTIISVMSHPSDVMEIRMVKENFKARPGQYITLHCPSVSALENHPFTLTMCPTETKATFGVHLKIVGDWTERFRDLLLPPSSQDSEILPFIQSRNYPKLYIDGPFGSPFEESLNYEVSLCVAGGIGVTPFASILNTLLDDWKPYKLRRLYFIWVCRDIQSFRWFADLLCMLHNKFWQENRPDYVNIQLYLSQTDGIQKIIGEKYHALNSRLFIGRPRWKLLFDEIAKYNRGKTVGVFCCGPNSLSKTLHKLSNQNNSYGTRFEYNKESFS
NOX4, sequence (P13498 2-195 partner, species assumed): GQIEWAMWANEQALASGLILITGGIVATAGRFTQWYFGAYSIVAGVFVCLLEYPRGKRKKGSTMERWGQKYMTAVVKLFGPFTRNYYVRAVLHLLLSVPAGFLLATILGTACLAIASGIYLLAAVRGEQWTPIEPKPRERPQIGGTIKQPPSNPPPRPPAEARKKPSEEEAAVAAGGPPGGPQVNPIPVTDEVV

human NOX4 (hNOX4), sequence (Q9NPH5 whole entry): as the sequence (Q9NPH5 whole entry, species assumed) above
human NOX4 (hNOX4), sequence (P13498 2-195 partner): as the sequence (P13498 2-195 partner, species assumed) above

Structure (SMILES) | IC50 [1] [µM] | IC50 [2] [µM]
O=c1c2ncccc2nc(SCc2ccccc2F)n1-c1ccc(Cl)cc1 [WO2005049613 example 59] | 79 | –
O=C(Nc1ccc2oc(N3CCC34COC4)nc2c1)c1ccc2c(c1)CCO2 [WO2016207785 example 15] | – | 0.4
